Assay results from US20240009436A1, “LOCALIZED […] OF […] […] AGENTS USING FOCUSED ULTRASOUND” (priority 2020, published 2024).

Legend:
[1] = tested on: brain; settings: cited from earlier work
[2] = tested on: vS1-vM1 circuit (wEPs in vM1); assay: Whisker-evoked potentials (wEPs) in vM1 after delivery to vS1 in anesthetized rats; assay type: in vivo, rat
Experimental: The AU-FUS sequence [AU-FUS (in vivo); see Table 1] was tested in vivo by manipulating a specific cortical network without opening the BBB. Rat vibrissa motor cortex (vM1) receives whisker sensory information (˜80%) through projections from vibrissa sensory cortex (vS1, “Barrel cortex”). When rodent whiskers are mechanically deflected, evoked activity propagates from brainstem via thalamus to vS1, and then to vM1. During simultaneous recordings the peaks of whisker-evoked potentials (wEPs) were observed first in vS1 and ˜3.0 ms later in vM1. It was tested whether inhibiting vS1 by the novel technique would suppress wEPs in vM1 in anesthetized rats. The FUS transducer was positioned above the intact skull and focused on vS1. Using a multielectrode array, the wEPs and the whisker-evoked multi-unit activity in vM1 were monitored online. In parallel, muscimol-loaded UC-carriers were continuously (i.v.) injected. The AU-FUS sequence was applied repeatedly on vS1 to aggregate the UC-carriers and to uncage muscimol. Muscimol is an agonist of ionotropic GABAA receptors, the major receptor responsible for fast inhibitory transmission in the brain, which […] the BBB.
The animal was anesthetized, a small craniotomy was performed over vM1 (TZ region) or V1 for inserting a recording probe 140, and a FUS transducer 136 was positioned on the intact skull above vS1 with the help of stereotaxic coordinates and coupled with sterile ultrasound gel and water collimator.
Muscimol-loaded UC-carriers were injected intravenously through the tail vein using an infusion pump 110. vM1 and V1 recordings were performed on separate cohorts.
Whiskers were cut to around 15 mm length. The 8-12 largest whiskers were inserted into a glass capillary tube which was attached to a piezo actuator (T223-H4CL-503X, Piezo Systems). The piezo actuator was shielded with a custom-made copper cover. The whiskers were deflected with 120 Hz cosine pulses (292 mm/s velocity, displaced 2.34 mm in 8 ms) which were generated in LabView (National Instruments) and converted into an analog signal (DAC NI, USB-6211) which then drove the piezo actuator. Stimulus presentation was synchronized with the electrophysiological recordings with a TTL signal at stimulus onset. Whiskers were continuously stimulated at a repetition rate of 0.3 Hz.
All electrophysiological data were recorded with a RHD2000 system (Intan Technologies) with 30 kS/s sampling rate. All stereotaxic coordinates were determined with respect to bregma. A 32 channel Neuronexus probe (A2x16-10 mm-100-500-177-A32, 15 or 50 μm thick) attached to a motorized 3D arm (StereoDrive-960HD, Neurostar), fixed outside of the stereotaxic frame, was inserted into the vM1 (Coordinates AP: 1-2 mm, ML: 0.5-1 mm, depending on the vasculature, DV: 1.5-2 mm from pia) at 50° to the coronal plane. The probe was initially inserted ˜250-500 μm below the cortical surface. The FUS transducer was integrated with an acoustic collimator which was filled with degassed and deionized water and contained a polystyrene film (McMaster-Carr) at the end. The collimator's shape was designed according to the FUS transducer's geometry so that it would not interfere with the FUS beam. This assembly was stereotaxically positioned such that the FUS focal volume was targeted to vS1 (Coordinates AP: −2.3 mm, ML: 6 mm, DV: 3.3 mm from skull surface) at a 30° angle with respect to the sagittal plane such that the focal volume of FUS beam targeted cortical layers of vS1. […]

[3] = rat barrel cortex; cited from earlier work
[4] = tested on: VEPs in primary visual cortex (V1); assay: Visually evoked potentials (VEPs) in V1 after delivery to vS1; assay type: in vivo, rat; settings: muscimol delivered to vS1 using AU-FUS
Experimental: To rule out that the observed modulation of vM1 could be due to spreading of muscimol from vS1, signals were recorded from a cortical area close to vS1 but without significant connectivity with vS1: Muscimol was delivered to vS1 using AU-FUS, and the visually evoked potentials (VEPs) were measured from primary visual cortex (V1). […] V1 and vM1 recordings were done on separate cohorts. The same ultrasound parameters were used for both vS1-vM1 and vS1-V1 paradigms.
The protocol used for vS1-V1 was the same as vS1-vM1 paradigm with the following exceptions: FUS sonication coordinates were changed to AP: −2.3 mm, ML: 6.5 mm, DV: 3.3 mm from skull surface and FUS angle was changed from 30° to 34° to create space for electrode insertion to V1. A more lateral region of vS1 was sonicated to achieve better coupling with skull with the new angling of the FUS transducer. Electrode insertion coordinates were changed for V1 recording to AP: −5.5-6.0 mm, ML: 3.2-3.5 mm, DV: 1.6-2.0 mm to ensure that recording is done from cortical layers of V1. […] Instead of wEPs, VEPs were recorded by visual stimulation. […]
All electrophysiological data analysis was done in Python, version 3.6, using custom scripts. […] For wEP and VEP analysis, moving averages were calculated for a window step size of 180 whisker deflections/visual stimuli (moving step size is 1 deflection/visual stimulus). […]

[5] = i.v., without AU-FUS or UC-carriers

For `NCc1cc(=O)[nH]o1` [muscimol], the “amount of systemic muscimol required for brain inactivation” value [1] is given as about 1.6 mg/kg, the “change of wEPs in vM1, baseline vs post-treatment” value ([2]; free muscimol (250 ng) and vehicle-loaded UC-carriers with AU-FUS (control)) is given as “No statistically significant changes” and the “systemic muscimol needed for comparable reduction of wEPs” value [2, 5] is given as “at least 260 μg”. The “systemic muscimol needed for comparable reduction of wEPs, relative to measured payload of the UC-carriers” value [2, 5] was “at least 1300 times”, the “time of maximum inhibition in vM1” value ([2]; muscimol uncaged in vS1 by AU-FUS) was at most 20 min and the “change of wEPs in vM1, baseline vs post-treatment” value ([2]; systemic injection of free muscimol (250 ng) with AU-FUS (control)) was “No statistically significant changes”. For the same molecule, the “diffusion coefficient D” value [3] was 8.7×10^−6 cm^2 s^−1 and the “change of VEPs recorded from V1” value [4] was “No statistically significant changes”.
